From article PMC7686308, “Overcoming the blood–brain barrier by Annexin A1-binding peptide to target brain tumours” (British Journal of Cancer, 2020)
Ends that are not written are not given here.

Key:
[1] = system: ANXA1 exhibiting a free N-terminus; assay: FCS binding to ANXA1 with free N-terminus; design: species or system human; conditions: IF7C-A546, 37 °C, 1 h, increase in diffusion time
Protocol: (§1) A mixture of IF7C-A546 with Anxa1 or MC16 (50 μl) was loaded into each well of a 96-well plate and incubated at 37 °C for 1 h. FCS was performed with the MF20 analytical system (Olympus) using a 543 nm He–Ne laser for illumination. Each sample was measured five times with a data acquisition time of 10 sec per measurement. IF7C(RR) binding was defined as an increase in translational diffusion time relative to a control.
(§2) Fig. 2 Binding of IF7 to the ANXA1 N-terminal domain and full-length ANXA1 protein in vitro. a Plate binding assay of N-terminal biotinylated IF7C(RR) to human MC16 peptide and its mutants. Each synthetic MC16 and its mutant peptide (10 nmoles) was bound to maleimide-activated plastic well through its C-terminal cysteine residue. Biotinylated IF7C(RR) peptide (1 μg/mL) was added to each well and binding of biotinylated peptide was detected by peroxidase-conjugated streptavidin and peroxidase colour reaction. b FCS analysis of IF7 with ANXA1 (left) and with MC16 peptides (right) in solution. […] The proposed model was further validated by dG scoring, which was calculated using MOE software with GBVI/WSA, a program allows us to compare calculated and observed energetics.[59] The IF7 docking pose was calculated to be −3.7 kcal/mol.

[2] = system: N-terminally His-tagged ANXA1; assay: FCS binding to N-terminally His-tagged ANXA1; design: species or system human; conditions: IF7C-A546, 37 °C, 1 h, diffusion time
Protocol: as §1, §2

B16 cells = assay: Cytotoxicity on B16 cells (CellTiter Glo); type: cell-based, mouse; conditions: B16, 2 days, CellTiter Glo, GraphPad Prism; for IC50: unit from plot axis
Protocol: (§3) Drug concentration (OM) Drug concentration ( nM) […]
(§4) Supplementary Fig 7 . Cytotoxicity of peptide-conjugated SN38, free peptide s and unconjugated SN-38 and irinotecan (CPT-11) on C6 and B16 cells cultured in vitro. Rat glioma C6 and mouse melanoma B16 cells were treated with reagents shown along the top panels at the concentration indicated and cultured for 2 days. Cell viability was determined by a CellTiter Glo (Promega) assay. The IC50 of each reagent was determined using GraphPad Prism program. N.D.: not determined.

C6 cells = assay: Cytotoxicity on C6 cells (CellTiter Glo); type: cell-based, rat; conditions: C6, 2 days, CellTiter Glo, GraphPad Prism; for IC50: unit from plot axis
Protocol: as §3, §4

[3] = system: B16-Luc brain and subcutaneous tumours; assay: B16-Luc dual-tumour model in C57BL/6 mice; type: in vivo, mouse (C57BL/6); conditions: irinotecan 50 μmoles/kg i.v. daily, 6 days
Protocol: C6-Luc cells (5 × 10^4 suspended in 2 μl PBS) were injected into C57BL/6 mouse brain striatum using a stereotaxic frame as described previously.[21] Seven days later, mice underwent imaging for luciferase-expressing tumours. To do so, 100 μl luciferin (30 mg/ml PBS) was injected peritoneally. Mice were then anesthetised under isoflurane gas (20 ml/min) supplemented with oxygen (1 ml/min) and placed under a camera equipped with a Xenogen IVIS 200 imager at both the SBP and AIST animal facilities. Photon numbers were measured for 1–10 sec or for 1 min. For the dual-tumour model, C6-Luc cells were similarly injected into the brain of NOD-SCID mice. When a brain tumour became detectable by IVIS imager, C6-Luc cells (2 × 10^5 suspended in 100 μl PBS) were injected subcutaneously into the dorsal flank of the same mice. Photon numbers in brain and subcutaneous tumours were measured using the IVIS imager. The dual-tumour model was also produced using B16-Luc cells in the isogeneic C57BL/6 mouse. B16-Luc cells (5 × 10^4) were injected into brains of 8–10-weeks-old C57BL/6 female mice as described above for C6-Luc cells. When brain tumours became detectable, B16-Luc cells (2 × 10^5 cells) were injected subcutaneously into the dorsal flank of the same mouse.
IF7C(RR)-SN38 was injected intravenously through the tail vein into tumour-bearing mice once photon number of C6-Luc brain tumour reached 5 × 10^4, which usually occurred after 2 weeks. IF7C(RR)-SN38 (142 μg or 0.0567 μmoles) dissolved in 10 μl dimethylsulfoxide (DMSO) diluted with 100 μl of 50% Cremophore EL in ethanol plus 90 μl PBS was injected intravenously through the tail vein. As the average body weight of a mouse was 18 g, IF7C(RR)-SN38 dose per injection was 3.15 μmoles/kg. For B16-Luc brain tumours, IF7C(RR)-SN38 formulated with Cremophore EL was used at the dosage 7.0 μmoles/kg. Irinotecan (CPT-11), a water soluble SN38 prodrug, was dissolved in PBS and intravenously injected into mice at 50 μmoles /kg. In another set of experiments, brain tumour-bearing mice were treated with IF7C(RR)-SN38 (100 μg or 0.0412 μmoles) dissolved in 10 μl DMSO followed by dilution with 100 μl 10% Solutol HS15 in water. In that case, drug dosage was 2.5 μmoles/kg. Similarly formulated C(RR)-SN38 served as control.
Fig. 4 Effect of IF7C(RR)-SN38 on the dual-tumour model mice. a Dual-tumour model was established with C6-Luc cells in NOD-SCID mice. C6-Luc cells were grown both in brain and under the skin of mice. When tumours in brain and subcutaneous grew by showing photon number more than 2×10^4, IF7C(RR)-SN38 (3.15 μmoles/kg) was injected intravenously daily through tail vein for 9 days. b Effect of IF7C(RR)-SN38 on a dual-tumour model with B16-Luc melanoma cells in C57BL/6 mice. Growth of B16-Luc cells were monitored as in a similar manner as in a, followed by intravenous injection with either IF7C(RR)-SN38 (7.0 μmoles/kg), irinotecan (CPT-11) (50 μmoles/kg) or buffer control daily for 6 days. The drug was diluted in Cremophore EL. In each a and b, error bars denote means ± SEM. Statistical analysis was assessed by Student’s t-test.

[4] = biological target: T1, MC16 (Annexin A1 N-terminal peptide), tetrameric (Homo sapiens); assay: QCM
T1 chain: MAMVSEFLKQAWFIEC

Annexin A1 = biological target: T2, Annexin A1 (Homo sapiens, UniProt P04083); assay: QCM
T2 chain: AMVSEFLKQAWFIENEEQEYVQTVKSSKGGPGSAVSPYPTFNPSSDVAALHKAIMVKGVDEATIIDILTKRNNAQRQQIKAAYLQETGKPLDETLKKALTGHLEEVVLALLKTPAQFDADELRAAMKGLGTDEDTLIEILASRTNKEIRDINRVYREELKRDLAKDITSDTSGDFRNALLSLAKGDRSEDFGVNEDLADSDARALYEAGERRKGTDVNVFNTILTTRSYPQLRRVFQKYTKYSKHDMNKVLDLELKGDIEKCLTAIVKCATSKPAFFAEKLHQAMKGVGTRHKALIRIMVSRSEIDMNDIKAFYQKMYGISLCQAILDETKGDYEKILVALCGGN

## IFLLWQRCRR [IF7C(RR), IF7 with C-terminal cysteine extended by two arginines]
[1]
  binding in solution to untagged ANXA1: increased significantly compared to the control
[2]
  binding in solution to N-terminally His-tagged ANXA1: did not significantly increase

## CCc1c2c(nc3ccc(OC(=O)N4CCC(N5CCCCC5)CC4)cc13)-c1cc3c(c(=O)n1C2)COC(=O)[C@]3(O)CC [Irinotecan]
B16 cells
  logIC50: 4.443
B16 cells; Mus musculus, 48 h
  IC50: 27700 nM
C6 cells
  logIC50: 4.103
C6 cells; Rattus norvegicus, 48 h
  IC50: 12700 nM
[3]
  brain tumour growth (photon number): minimally suppressed brain tumour growth
  subcutaneous tumour growth (photon number): suppressed subcutaneous tumour growth

## CCc1c2c(nc3ccc(O)cc13)-c1cc3c(c(=O)n1C2)COC(=O)[C@]3(O)CC [SN-38]
B16 cells
  logIC50: 1.499
  IC50: 31.6 nM
C6 cells
  logIC50: 1.433
  IC50: 27.1 nM

## IFLLWQRCRR (not fully specified (residue 8); also: tetramer on 4-arm PEG via Cys)
[4]
  Kd: 247 nM

## IFLLWQRCRR
Annexin A1
  Kd: 60.1 nM
